As usually defined, the chromatographic logP is lipophilicity estimated from chromatographic retention. A lower chromatographic logP goes with lower lipophilicity.

The nature of one data set: logP determination by retention times (calibration with alkan-2-ones). Particulars: logP, * HPLC reversed-phase C18, 40° C., mobile phase 0.1% aqueous formic acid and acetonitrile, linear gradient 10% to 95% acetonitrile.
Regarding `Cc1nc(C(C)C)sc1-c1ccnc(Nc2ccc(Cl)cc2)n1` [Example 464, N-(4-chlorophenyl)-4-(2-isopropyl-4-methyl-1,3-thiazol-5-yl)pyrimidine-2-amine], the chromatographic logP worked out at 4.25.
Still for that read-out and setting: as for `COCc1nc(C)c(-c2ccnc(Nc3ccc(Cl)cc3)n2)s1` [Example 465, N-(4-chlorophenyl)-4-[2-(methoxymethyl)-4-methyl-1,3-thiazol-5-yl]pyrimidine-2-amine], the figure is 3.29.
`COCc1nc(C)c(-c2ccnc(Nc3ccc(F)c(C)c3)n2)s1` [Example 478, N-(4-fluoro-3-methylphenyl)-4-[2-(methoxymethyl)-4-methyl-1,3-thiazol-5-yl]pyrimidine-2-amine] showed a chromatographic logP of 3.14.
Same read-out and setting: in the case of `CSc1nc(C)c(-c2ccnc(Nc3ccc(F)c(C)c3)n2)s1` [Example 481, N-(4-fluoro-3-methylphenyl)-4-[4-methyl-2-(methylthio)-1,3-thiazol-5-yl]pyrimidine-2-amine] it was 3.89.
The same measure, in the same setting: as for `COCC(C)Nc1nc(C)c(-c2ccnc(Nc3ccc(F)c(C)c3)n2)s1` (stereo not drawn) [Example 482, N-(4-fluoro-3-methylphenyl)-4-{2-[(2-methoxy-1-methylethyl)amino]-4-methyl-1,3-thiazol-5-yl}pyrimidine-2-amine], the figure is 2.19; as for `Cc1cc(Nc2nccc(-c3sc(NCC4CCCO4)nc3C)n2)ccc1F` (stereo not drawn) [Example 483, N-(4-fluoro-3-methylphenyl)-4-{4-methyl-2-[(tetrahydrofuran-2-ylmethyl)amino]-1,3-thiazol-5-yl}pyrimidine-2-amine], 2.03; as for `Cc1nc(C(C)C)sc1-c1ccnc(Nc2ccc(F)cc2)n1` [Example 485, N-(4-fluorophenyl)-4-(2-isopropyl-4-methyl-1,3-thiazol-5-yl)pyrimidine-2-amine], 3.58.
Still for that read-out and setting: in the case of `COCc1nc(C)c(-c2ccnc(Nc3ccc(F)cc3)n2)s1` [Example 486, N-(4-fluorophenyl)-4-[2-(methoxymethyl)-4-methyl-1,3-thiazol-5-yl]pyrimidine-2-amine] it was 2.8; in that of `COCC(C)Nc1nc(C)c(-c2ccnc(Nc3ccc(F)cc3)n2)s1` (stereo not drawn) [Example 488, N-(4-fluorophenyl)-4-{2-[(2-methoxy-1-methylethyl)amino]-4-methyl-1,3-thiazol-5-yl}pyrimidine-2-amine], 2.
The compound `Cc1nc(NCC2CCCO2)sc1-c1ccnc(Nc2ccc(F)cc2)n1` (stereo not drawn) [Example 489, N-(4-fluorophenyl)-4-{4-methyl-2-[(tetrahydrofuran-2-ylmethyl)amino]-1,3-thiazol-5-yl}pyrimidine-2-amine] came in with a chromatographic logP of 2.1.
The same measure, in the same setting: as for `COc1ccc(Nc2nccc(-c3sc(SC)nc3C)n2)cn1` [Example 522, N-(6-methoxypyridin-3-yl)-4-[4-methyl-2-(methylthio)-1,3-thiazol-5-yl]pyrimidine-2-amine], the figure is 2.67; as for `COc1ccc(Nc2nccc(-c3sc(NCC4CCCO4)nc3C)n2)cn1` (stereo not drawn) [Example 523, N-(6-methoxypyridin-3-yl)-4-{4-methyl-2-[(tetrahydrofuran-2-ylmethyl)amino]-1,3-thiazol-5-yl}pyrimidine-2-amine], 1.57; as for `CSc1nc(C)c(-c2ccnc(Nc3ccc(N(C)C)cc3)n2)s1` [Example 524, N,N-dimethyl-N′-{4-[4-methyl-2-(methylthio)-1,3-thiazol-5-yl]pyrimidin-2-yl}benzene-1,4-diamine], 1.75.
Same read-out and setting: as for `Cc1nc(C2CC2)sc1-c1ccnc(Nc2cccc(CN)c2)n1` [Example 537, N-[3-(aminomethyl)phenyl]-4-(2-cyclopropyl-4-methyl-1,3-thiazol-5-yl)pyrimidine-2-amine], the figure is 1.45; as for `COCc1nc(C)c(-c2ccnc(Nc3ccc(NC(C)=O)cc3)n2)s1` [Example 544, N-[4-({4-[2-(methoxymethyl)-4-methyl-1,3-thiazol-5-yl]pyrimidin-2-yl}amino)phenyl]acetamide], 1.8; as for `Cc1nc(C)c(-c2ccnc(Nc3cccc(N(C)C)c3)n2)s1` [Example 551, N′-[4-(2,4-dimethyl-1,3-thiazol-5-yl)pyrimidin-2-yl]-N,N-dimethylbenzene-1,3-diamine], 1.75.
As for `Cc1nc(C)c(-c2ccnc(Nc3ccc(N(C)C)cc3)n2)s1` [Example 552, N′-[4-(2,4-dimethyl-1,3-thiazol-5-yl)pyrimidin-2-yl]-N,N-dimethylbenzene-1,4-diamine], the chromatographic logP came to 1.41.
Same read-out and setting: in the case of `Cc1nc(C2CCCCC2)sc1-c1ccnc(Nc2ccc(N(C)C)cc2)n1` [Example 553, N′-[4-(2-cyclohexyl-4-methyl-1,3-thiazol-5-yl)pyrimidin-2-yl]-N,N-dimethylbenzene-1,4-diamine] it was 2.38; in that of `Cc1nc(C2CC2)sc1-c1ccnc(Nc2cccc(N(C)C)c2)n1` [Example 554, N′-[4-(2-cyclopropyl-4-methyl-1,3-thiazol-5-yl)pyrimidin-2-yl]-N,N-dimethylbenzene-1,3-diamine], 2.19.
On the same count and under the same terms, as for `Cc1nc(C2CC2)sc1-c1ccnc(Nc2ccc(N(C)C)cc2)n1` [Example 555, N′-[4-(2-cyclopropyl-4-methyl-1,3-thiazol-5-yl)pyrimidin-2-yl]-N,N-dimethylbenzene-1,4-diamine], the figure is 1.63; as for `CC(=O)Nc1nc(C)c(-c2ccnc(Nc3ccccc3)n2)s1` [Example 560, N-[5-(2-anilinopyrimidin-4-yl)-4-methyl-1,3-thiazol-2-yl]acetamide], 2.09.
On the same count and under the same terms, in the case of `COCC(C)Nc1nc(C)c(-c2ccnc(Nc3cccc(NC(C)=O)c3)n2)s1` (stereo not drawn) [Example 569, N-{3-[(4-{2-[(2-methoxy-1-methylethyl)amino]-4-methyl-1,3-thiazol-5-yl}pyrimidin-2-yl)amino]phenyl}acetamide] it was 1.47.
In the case of `COCC(C)Nc1nc(C)c(-c2ccnc(Nc3cccc(NS(C)(=O)=O)c3)n2)s1` (stereo not drawn) [Example 570, N-{3-[(4-{2-[(2-methoxy-1-methylethyl)amino]-4-methyl-1,3-thiazol-5-yl}pyrimidin-2-yl)amino]phenyl}methanesulphonamide], the chromatographic logP stood at 1.57.
`COCC(C)Nc1nc(C)c(-c2ccnc(Nc3ccc(NC(C)=O)cc3)n2)s1` (stereo not drawn) [Example 578, N-{4-[(4-{2-[(2-methoxy-1-methylethyl)amino]-4-methyl-1,3-thiazol-5-yl}pyrimidin-2-yl)amino]phenyl}acetamide]: the chromatographic logP is 1.43. This chromatographic logP and that of the compound before are within 0.2 log units of each other.
The same measure, in the same setting: in the case of `CC(=O)Nc1ccc(Nc2nccc(-c3sc(NCC4CCCO4)nc3C)n2)cc1` (stereo not drawn) [Example 580, N-{4-[(4-{4-methyl-2-[(tetrahydrofuran-2-ylmethyl)amino]-1,3-thiazol-5-yl}pyrimidin-2-yl)amino]phenyl}acetamide] it was 1.39; in that of `Cc1nc(C)c(-c2ccnc(Nc3ccc4c(c3)OCO4)n2)s1` [Example 616, N-1,3-benzodioxol-5-yl-4-(2,4-dimethyl-1,3-thiazol-5-yl)pyrimidine-2-amine], 2.44; in that of `Cc1nc(C2CC2)sc1-c1ccnc(Nc2ccc3c(c2)OCO3)n1` [Example 617, N-1,3-benzodioxol-5-yl-4-(2-cyclopropyl-4-methyl-1,3-thiazol-5-yl)pyrimidine-2-amine], 2.96.
The same measure, in the same setting: as for `CCc1nc(C)c(-c2ccnc(Nc3ccc4c(c3)OCO4)n2)s1` [Example 618, N-1,3-benzodioxol-5-yl-4-(2-ethyl-4-methyl-1,3-thiazol-5-yl)pyrimidine-2-amine], the figure is 2.77; as for `Cc1nc(C(C)C)sc1-c1ccnc(Nc2ccc3c(c2)OCO3)n1` [Example 619, N-1,3-benzodioxol-5-yl-4-(2-isopropyl-4-methyl-1,3-thiazol-5-yl)pyrimidine-2-amine], 3.25; as for `COCc1nc(C)c(-c2ccnc(Nc3ccc4c(c3)OCO4)n2)s1` [Example 620, N-1,3-benzodioxol-5-yl-4-[2-(methoxymethyl)-4-methyl-1,3-thiazol-5-yl]pyrimidine-2-amine], 2.47.
`CC(=O)N(Cc1cccc(Nc2nccc(-c3sc(C4CC4)nc3C)n2)c1)C(C)=O` [Example 621, N-acetyl-N-(3-{[4-(2-cyclopropyl-4-methyl-1,3-thiazol-5-yl)pyrimidin-2-yl]amino}benzyl)acetamide] showed a chromatographic logP of 1.87.
Still for that read-out and setting: in the case of `CC(=O)N(Cc1cccc(N(C(C)=O)c2nccc(-c3sc(C4CC4)nc3C)n2)c1)C(C)=O` [Example 622, N-acetyl-N-(3-{acetyl[4-(2-cyclopropyl-4-methyl-1,3-thiazol-5-yl)pyrimidin-2-yl]amino}benzyl)acetamide] it was 2.39.
In turn, `Cc1nc(C2CC2)sc1-c1ccnc(Nc2cccc(CNC(=O)OC(C)(C)C)c2)n1` [Example 624, tert-butyl-(3-{[4-(2-cyclopropyl-4-methyl-1,3-thiazol-5-yl)pyrimidin-2-yl]amino}benzyl)carbamate] showed a chromatographic logP of 2.87.
Still for that read-out and setting: in the case of `CCc1nc(C)c(-c2ccnc(Nc3ccc(CNC(=O)OC(C)(C)C)cc3)n2)s1` [Example 632, tert-butyl-(4-{[4-(2-ethyl-4-methyl-1,3-thiazol-5-yl)pyrimidin-2-yl]amino}benzyl)carbamate] it was 3.26.

The data set is the same for the next values; noted with them: logP, ** HPLC reversed-phase C18, 43° C., mobile phase 0.1% aqueous phosphoric acid and acetonitrile, linear gradient 10% to 95% acetonitrile.
Turning to `CC(=O)Nc1nc(C)c(-c2ccnc(Nc3cccc(Cl)c3)n2)s1` [Example 515, N-(5-{2-[(3-chlorophenyl)amino]pyrimidin-4-yl}-4-methyl-1,3-thiazol-2-yl)acetamide], the chromatographic logP is 2.49.
On the same count and under the same terms, in the case of `Cc1nc(C)c(-c2ccnc(Nc3ccc(CNC(=O)OC(C)(C)C)cc3)n2)s1` [Example 625, tert-butyl-(4-{[4-(2,4-dimethyl-1,3-thiazol-5-yl)pyrimidin-2-yl]amino}benzyl)carbamate] it was 2.7.

The record behind these values is patent publication US20090030024A1, “THIAZOLES AS FUNGICIDES” (priority 2005, published 2009).
